According to patent US20100069308A1, “Surfaces containing antibacterial polymers” (priority 2008, published 2010):

Experiments:
E. coli = conditions: cited from earlier work
B. subtilis = conditions: cited from earlier work
Psuedomonas aeruginosa = conditions: cited from earlier work
Enterococcus faecalis = conditions: cited from earlier work
Streptococcus pneumoniae = conditions: cited from earlier work
Escherichia coli = conditions: cited from earlier work
Haemophilus influenzae = conditions: cited from earlier work
Staphylococcus aureus = conditions: cited from earlier work
bacterial colonies = test: Antibacterial activity in the presence of biological serum (FIG. 1, number of bacterial colonies vs concentration); type: cell-based; conditions: after 24 hours in biological serum
Description: Due to their mechanism of action, such antibacterial peptides should not be susceptible to resistance. […] In FIG. 1, panels 100A and 100B show the number of bacterial colonies as a function of the concentration of pexiganan 101A/B and ID 1 103 A/B, after 2 and 24 hours respectively, in biological serum. […] Accordingly, a peptide alternative that kills bacteria by a mechanism similar to that of antibacterial peptides but without the biological susceptibility would provide greater protection against bacterial colonization.
FIG. 1 depicts the activity of ID 1 and an antibacterial peptide (pexiganan) in the presence of biological serum.

Row | Substance | E. coli MIC (E. coli) | B. subtilis MIC (B. subtilis) | other results
1 | H-NLys-Nssb-Nspe-Nssb-Nspe-NLys-Nspe-NLys-Nssb-Nssb-Nspe-NLys-NH2 [ID 15] | 3.1 µM | 15 µM | –
2 | H—(NGlu-Nspe-Nspe)4-NH2 [ID 13] | >219 µM | >219 µM | –
3 | H—(NLys)4-(Nspe)8-NH2 [ID 14] | 6.9 µM | 1.7 µM | –
4 | H—(NLys-Nrpe-Nrpe)4-NH2 [ID 3] | 3.5 µM | .88 µM | –
5 | H—(NLys-Nsmb-Nspe)4-NH2 [ID 7] | 7.4 µM | .95 µM | –
6 | H—(NLys-Nspe-Nspe)2-NH2 [ID 4] | 27 µM | 27 µM | –
7 | H—(NLys-Nspe-Nspe)3-NH2 [ID 5] | 9.1 µM | 1.2 µM | –
8 | H—(NLys-Nspe-Nspe)4-NH2 [ID 1] | 3.5 µM | .88 µM | MIC (Psuedomonas aeruginosa): 28 µM; MIC (Enterococcus faecalis): 3.4 to 6.9 µM; MIC (Streptococcus pneumoniae): 1.7 to 3.4 µM; MIC (Escherichia coli): 14 to 28 µM; MIC (Haemophilus influenzae): 6.9 µM; MIC (Staphylococcus aureus): 3.4 µM; Activity (number of bacterial colonies) in biological serum (bacterial colonies): retains activity
9 | H—(NLys-Nspe-Nspe)5-NH2 [ID 6] | 5.5 µM | 1.4 µM | –
10 | H—(NLys-Nspe-Nspe-NGlu-Nspe-Nspe)2-NH2 [ID 12] | >110 µM | 6.9 µM | –
11 | H—(NLys-Nspe-Nspe-NLys-Nspe-L-Pro-(NLys-Nspe-Nspe)2-NH2 [ID 11] | 3.1 µM | 1.6 µM | –
12 | H—(NLys-Nspe-Nspe-NLys-Nspe-NHis)2-NH2 [ID 10] | 3.5 µM | 6.9 µM | –
13 | H—(NLys-Nspe-Nspe-NLys-Nspe-Nsna)2-NH2 [ID 9] | 3.3 µM | 1.6 µM | –
14 | H—(NLys-Nssb-Nspe)4-NH2 [ID 2] | 31 µM | 3.9 µM | –
15 | H—(NLys-Nssb-Nspe-NLys-Nssb-Nsna)2-NH2 [ID 8] | 7.2 µM | .93 µM | –
